From publication PMC12649575, “Assessment of Polymyxin B with Sodium Deoxycholate Sulfate Micelles in a Rat Model to Combat Polymyxin Nephrotoxicity” (Antibiotics, 2025)

Assays:
[1] = cited from earlier work
From the text: Nephrotoxicity remains a significant challenge for PMB. The prevalence of nephrotoxicity ranges from 10% to 60% despite the effectiveness of PMB in treating multidrug-resistant Gram-negative bacterial infections. The amphipathic properties of polymyxins are also responsible for their nephrotoxicity where the cationic diaminobutyric acid (Dab) residues of PMB interact with anionic phospholipids (e.g., phosphatidylinositol, cardiolipin) on the membranes of renal tubular cells. This electrostatic interaction, combined with the insertion of the lipophilic tail into the lipid bilayer, dis ... || PMB undergoes extensive reabsorption in the renal tubule, and a very high concentration of PMB is found in human renal tubular cells compared to the extracellular concentration. The increased accumulation of PMB leads to cell swelling and lysis by disrupting the permeability of the renal tubular epithelial cell membrane. In our results, the administration of the PMB formulation increased the serum concentration profile of PMB.

[2] = PMB serum concentration after a single subcutaneous dose (LC-MS); type: in vivo; settings: rat, single 6 mg/kg s.c., 4 h post-dose, PMB after protein precipitation, mean ± SD, n = 4
From the text: (§3) The serum concentrations reported represent the free (unbound) PMB fraction determined after protein precipitation and filtration, which is the pharmacologically active component.
(§4) For the biodistribution study, a sample size of four rats per group was chosen as a preliminary exploratory analysis to determine major organ distribution trends. This sample size was consistent with previous biodistribution studies involving polymyxins and sufficient to identify statistically meaningful differences in renal accumulation [7]. […] PMB concentrations were measured in LC-MS for free (unbound) fraction of serum and tissue homogenates after protein precipitation.
(§5) The PMB was quantified using an LC-MS/ion trap time-of-flight system (Shimadzu, Tokyo, Japan) equipped with a C18 column (2.1 mm id × 150 mm, 2.7 µm particle size; Thermo Fisher Scientific, Scoresby, Australia). […] A quantity of 400 µL of supernatant was added to 600 µL of the mobile phase. A known amount of standard PMB in blank serum was prepared using the same method to produce a calibration curve of PMB and quantification was performed using colistin sulfate (1 µg/mL) as the internal standard. The monitored mass transitions were m/z 602.4 → 101.1 for PMB and m/z 585.5 → 101.1 for colistin. […]

male Sprague-Dawley rats [3] = experiment: Body weight and body weight gain in the 7-day nephrotoxicity study; type: in vivo; settings: rat
Protocol: After seven days of treatment with 6 mg/kg of the PMB and PMB formulation, the weight progression of the rats in each group was measured and recorded. All 36 rats successfully acclimated and reached the target body weight of 110 g within the 7-day period. No animals were excluded from the study. The results in Figure 1A show the weight changes measured on day 0, day 4, and day 7 of administration.
The animal study was approved by the Animal Ethics Committee of Prince of Songkla University (Project License No. MHESI 68014/675, Ref. AR042/2024). The animals were housed in a controlled environment with a temperature of 22 ± 2 °C, relative humidity of 50 ± 10%, and a 12/12-h light/dark cycle. They were provided with a standard laboratory rodent diet and water ad libitum. The study was conducted on male outbred Sprague-Dawley rats (5–7 weeks old, 130–170 g) that were obtained from the National Laboratory Animal Center, Mahidol University, Nakorn Pathom, Thailand. The rats were fed the standard feed protocol by the Southern Laboratory Animal Facility, Faculty of Sciences, Prince of Songkla University. Rats were allowed to acclimate for 7 days prior to the experiment.
The nephrotoxicity experiment of the PMB formulation was performed on 36 male rats that were randomly divided into four groups (n = 9). Randomization was performed using computer-generated random sequences in Microsoft Excel with a fixed seed value to ensure reproducibility. Block randomization was used to balance the number of animals per group. […] The PMB dose of 6 mg/kg/day (expressed as PMB equivalent) was selected based on previous pharmacokinetic and toxicity studies in rats, where this dose consistently produced measurable nephrotoxicity without lethality. […] The average weight gain of each group was recorded for the experiment. We randomized the treatment order and controlled the timing of measurements, and all researchers involved in the study were blinded to the intervention. The animals were euthanized 24 h after the last treatment with an intraperitoneal lethal dose of sodium pentobarbital (200 mg/kg). […]

[4] = system: rat kidney, liver, lung and spleen tissue; experiment: Histopathological examination (H&E) of kidney, liver, lung and spleen; type: in vivo; settings: 7 days of 6 mg/kg/day s.c., result in words
Protocol: An H&E assay was performed on the collected tissues of all animals to evaluate PMB-induced nephrotoxicity and organ damage. The kidney histopathological results from the H&E assay of the renal cortex and medulla in the treated animals are shown in Figure 3.
Liver histopathological alterations in the central vein area and portal triad area of the treated rats are shown in Figure 4A and Figure 4B, respectively.
Histopathological alterations in the spleen tissue of the treated animals were also examined (Figure 4D).
(§1) The nephrotoxicity experiment of the PMB formulation was performed on 36 male rats that were randomly divided into four groups (n = 9). Randomization was performed using computer-generated random sequences in Microsoft Excel with a fixed seed value to ensure reproducibility. Block randomization was used to balance the number of animals per group. […] The PMB dose of 6 mg/kg/day (expressed as PMB equivalent) was selected based on previous pharmacokinetic and toxicity studies in rats, where this dose consistently produced measurable nephrotoxicity without lethality. […] The average weight gain of each group was recorded for the experiment. We randomized the treatment order and controlled the timing of measurements, and all researchers involved in the study were blinded to the intervention. The animals were euthanized 24 h after the last treatment with an intraperitoneal lethal dose of sodium pentobarbital (200 mg/kg). Blood samples were collected by cardiac puncture, and the serum was separated by centrifugation (3000× g for 15 min) and stored at −80 °C until assayed. Samples of the kidney, liver, spleen, lung, and heart tissues were carefully collected, weighed, and sectioned for histopathological analysis. Histological observation was performed to assess potential tissue damage and evaluate the extent of toxicity following the treatment.
Excess fat from the kidney, liver, spleen, lung, and heart tissues was removed through dissection and trimming. All samples were preserved in 10% buffered formalin using a fixative volume at least 10 times the tissue volume for three days. Subsequently, the tissues were dehydrated through a graded series of ethanol (70%, 80%, 95%, and 100%) using a tissue processor (LEICA TP 1020, Leica Microsystems GmbH, Wetzlar, Germany), with each concentration step lasting for 60 min. Following this, the tissues were embedded in Paraplast blocks using a tissue embedder (LEICA EG 1160, Leica Microsystems GmbH, Wetzlar, Germany). Thin sections that measured 5 μm in thickness were obtained using an automatic microtome. The slides were stained with Harris’ hematoxylin and eosin (H&E) and examined under an Olympus DP73 microscope (Olympus, Tokyo, Japan) equipped with cellSens software version 6.1.4.2. Histopathological analysis was performed by an investigator who was blinded to the treatment groups.

male Sprague-Dawley rats [5] = experiment: Serum oxidative stress biomarkers SOD and CAT after 7 days of treatment; type: in vivo; settings: rat serum, after 7 days of 6 mg/kg/day s.c., commercial kit, mean ± SD, n = 5; for Serum catalase (CAT) level: control 22.4 ± 3.79; for Serum superoxide dismutase (SOD) level: normal saline 37.36 ± 3.4
Protocol: The serum levels of superoxide dismutase (SOD) and Catalase (CAT) in rats were analyzed to evaluate and compare the oxidative stress induced by the treatments. […] No significant reductions were detected in the serum SOD levels of the SDCS (38 ± 3.17 U/mL) and formulation (34.73 ± 5.17 U/mL) groups. […] The serum CAT levels in the treated rats followed a trend similar to that observed for the SOD levels (Figure 2D).
as §1
(§2) The serum levels of SOD and CAT were measured after the 7-day treatment period to investigate the oxidative properties of the treatments. The measurements were carried out using commercial kits according to the manufacturer’s instructions.

[6] = PMB biodistribution in organs 24 h after subcutaneous dose (LC-MS); type: in vivo; settings: rat, 6 mg/kg s.c., kidney homogenate 24 h post-dose, mean ± SD, n = 4
From the text: as §3, §4, §5

rat kidney function = experiment: Kidney function: serum BUN and creatinine after 7 days of treatment; type: in vivo; settings: after 7 days of 6 mg/kg/day s.c., autoanalyzer, mean ± SD; for Serum creatinine (Cr): n = 5, normal saline 2.08 ± 1.08; for Serum blood urea nitrogen (BUN): n = 5, normal saline 13.8 ± 1.3
Protocol: After seven days of treatment, the serum levels of blood urea nitrogen (BUN) and Cr were assessed in the rats to investigate their kidney function. […] The PMB group had slightly elevated Cr levels (2.28 ± 0.31 mg/dL) (Figure 2B).
as §1, §2

Substance | Urinary recovery ([1]; animal models) [%] | PMB kidney/serum concentration ratio ([1]; another study) [fold] | PMB serum concentration at 4 h [2] [µg/mL] | Body weight gain compared with control (male Sprague-Dawley rats [3]; 6 mg/kg/day s.c. for 7 days, n = 9, result in words) | Body weight on day 4 (male Sprague-Dawley rats [3]; 6 mg/kg/day s.c., day 4 of 7, mean ± SD, n = 9, normal saline group 180.0 ± 11.83 g) [g] | Body weight on day 7 (male Sprague-Dawley rats [3]; 6 mg/kg/day s.c., day 7, mean ± SD, n = 9, normal saline group 207.5 ± 11.62 g) [g] | Kidney histopathology (renal cortex and medulla) [4] | Liver histopathology (central vein and portal triad area) [4] | Lung histopathology [4] | Spleen histopathology [4] | Serum catalase (CAT) level (male Sprague-Dawley rats [5]) [nmol/min/mL] | Serum superoxide dismutase (SOD) level (male Sprague-Dawley rats [5]) [U/mL] | PMB concentration in the kidneys after 24 h [6] [µg/g] | Serum creatinine (Cr) (rat kidney function) [mg/dL] | Serum blood urea nitrogen (BUN) (rat kidney function) [mg/dL]
Polymyxin B [PMB] | < 5 | 18 | 2.94 ± 0.23 | significant reduction in body weight gain | 163.89 ± 15.37 | 191.67 ± 15.83 | Deformation of the glomeruli and congestion of the renal blood vessels | significant monocyte infiltration accompanied by loss of hepatocyte architecture and the presence of necrotic foci around the blood vessels | endothelial damage that was evidenced by an increased number of small pulmonary venules containing fibrin thrombi | numerous multinucleated giant cells | 9.5 ± 7.91 | 22.87 ± 8.1 | 3.73 ± 0.89 | 2.28 ± 0.31 | 16.56 ± 1.59
Sodium Deoxycholate sulfate [SDCS] | – | – | – | – | – | – | normal | normal hepatic tissues | normal lung tissue | normal white and red pulp | 22.25 ± 6.38 | 38 ± 3.17 | – | 2.06 ± 0.32 | 14.4 ± 2.07
